Test results as given in US5066655A (priority 1989, dated 1991).
Values belong to the compound of their own block, whether it stands above or below them.

Legend:
[1] = tested on: coronary A2 receptors; settings: cited from earlier work
[2] = biological target: T1, A2 receptors of human platelets (Homo sapiens, UniProt P29274); experiment: Antagonism of NECA-induced stimulation of adenylate cyclase activity of human platelet membranes; assay type: biochemical; settings: for antagonist potency at platelet A2 receptor: human platelet membranes, NECA-stimulated adenylate cyclase, result in words
T1 sequence (P29274 whole entry): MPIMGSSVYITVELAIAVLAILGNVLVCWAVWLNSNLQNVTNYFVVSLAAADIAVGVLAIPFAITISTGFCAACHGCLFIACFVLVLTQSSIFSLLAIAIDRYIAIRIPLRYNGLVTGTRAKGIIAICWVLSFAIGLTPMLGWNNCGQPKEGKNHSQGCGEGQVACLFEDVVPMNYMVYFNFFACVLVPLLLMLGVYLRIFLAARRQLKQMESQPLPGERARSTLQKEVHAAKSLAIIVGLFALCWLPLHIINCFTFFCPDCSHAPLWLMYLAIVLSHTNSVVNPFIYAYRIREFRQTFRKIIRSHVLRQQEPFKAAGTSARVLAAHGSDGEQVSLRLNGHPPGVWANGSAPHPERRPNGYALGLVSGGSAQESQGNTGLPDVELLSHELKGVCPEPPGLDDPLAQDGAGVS
Procedure: (§1) Human platelet, rat pheochromocytoma (PC12) cell, rat fat cell and rat cerebral cortex membranes were prepared as described (4,5,6). Adenylate cyclase activity and binding [^3 H]PIA to cerebral cortex membranes were determined essentially as described (4,5,6). KB values for the compounds were determined as described (4). […] EC50 and IC50 values for the agonists were obtained from the concentration-response curves by linear regression after logit-log transformation. KB values of the antagonists were calculated using the Schild equation KB =C/(CR-1), where C denotes the concentration of the competitor and CR the ratio of the EC50 and IC50 values in the presence and absence, respectively, of the competitor. IC50 of the compounds for inhibition of [^3 H]PIA binding to cerebral cortex membranes were transformed into Ki values as described (6).
In these cells, A2 receptor-mediated stimulation of adenylate cyclase results in an inhibition of aggregation (5,7).

[3] = tested on: A2 receptors of rat pheochromocytoma (PC12) cells; experiment: Antagonism of NECA-induced stimulation of adenylate cyclase activity of PC12 cell membranes; assay type: biochemical; settings: NECA-stimulated adenylate cyclase, result in words
Procedure: as §1

[4] = biological target: T2, A1 receptors of rat fat cells (Rattus norvegicus, UniProt P25099); experiment: Antagonism of R-PIA-induced inhibition of rat fat cell adenylate cyclase activity; assay type: biochemical; settings: rat fat cell membranes, result in words
T2 sequence (P25099 1-326): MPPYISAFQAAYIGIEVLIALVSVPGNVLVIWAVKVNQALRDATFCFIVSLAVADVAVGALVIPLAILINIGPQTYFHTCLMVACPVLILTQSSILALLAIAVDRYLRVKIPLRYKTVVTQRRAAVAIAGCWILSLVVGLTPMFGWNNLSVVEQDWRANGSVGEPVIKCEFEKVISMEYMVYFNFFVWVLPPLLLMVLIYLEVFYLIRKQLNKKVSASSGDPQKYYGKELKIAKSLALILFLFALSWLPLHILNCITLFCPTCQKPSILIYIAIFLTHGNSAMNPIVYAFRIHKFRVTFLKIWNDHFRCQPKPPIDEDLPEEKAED
Procedure: as §1

[5] = tested on: adenosine receptor in human fibroblast cell line; settings: cited from earlier work
[6] = biological target: T3, A1 receptors of rat cerebral cortex membranes (Rattus norvegicus, UniProt P25099); experiment: Inhibition of [3H]PIA binding to rat cerebral cortex membranes
T3 sequence (P25099 1-326): T2 sequence (P25099 1-326)
Procedure: as §1

[7] = biological target: T4, A1 adenosine receptor (guinea pig atrium) (Cavia porcellus, UniProt P47745); experiment: Antagonism of adenosine agonists in isolated guinea pig left atrium (force of contraction); settings: guinea pig atria, result in words
T4 construct: The left atria from male guinea pigs were isolated; from tissue; host or cells: left atria of male guinea pigs
T4 sequence (P47745 1-326): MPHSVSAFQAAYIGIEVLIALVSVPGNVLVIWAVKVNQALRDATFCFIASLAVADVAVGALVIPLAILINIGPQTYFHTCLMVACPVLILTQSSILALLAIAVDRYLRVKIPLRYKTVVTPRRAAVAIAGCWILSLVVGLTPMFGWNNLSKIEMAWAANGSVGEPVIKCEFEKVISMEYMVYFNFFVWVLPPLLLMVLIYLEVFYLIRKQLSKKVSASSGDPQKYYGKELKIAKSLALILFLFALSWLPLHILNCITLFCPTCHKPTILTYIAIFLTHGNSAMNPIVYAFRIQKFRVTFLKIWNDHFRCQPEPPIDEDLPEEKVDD
Procedure: The left atria from male guinea pigs were isolated, suspended between two punctate electrodes, and placed in a 20 ml organ bath that contained Krebs-Hensileit solution that was continuously gassed with 95% O2 + 5% CO2 and maintained at 31° C. The resting tension was one gram. Theatria were stimulated electrically at 1 hz, 1 ms duration pulses at supramaximal voltage. The force of contraction was recorded isometrically.
(§2) The ability of the compounds to antagonize the effects of agonists was analyzed using modified Schild plots.

[8] = tested on: A2 adenosine receptor (guinea pig taenia caecum); experiment: Antagonism of adenosine agonists in isolated guinea pig taenia caecum (contractile tone)
Procedure: Taenia from the guinea pig caecum were cut into lengths of 1.5-2 cm. The tissues were suspended in a 20 ml organ bath containing de Jalon's solution that was gassed with 95% O2 + 5% CO2 and maintained at 31° C. The resting tension was 1.5 g. The contractile response was measured isotonically.
as §2

[9] = biological target: T5, A1 receptors (Rattus norvegicus, UniProt P25099); experiment: Activity at A1 adenosine receptors (overall, fat cells and brain membranes); assay type: biochemical; settings: discussion, fat cell and brain data
T5 sequence (P25099 1-326): T2 sequence (P25099 1-326)
Procedure: as §1

[10] = tested on: A1 and A2 adenosine receptors; experiment: Activity at adenosine receptors, A1 versus A2 selectivity (overall); assay type: biochemical; settings: in words
Procedure: as §1

[11] = tested on: A2 receptors; settings: literature; cited from earlier work
[12] = tested on: A1 adenosine receptors; settings: literature; cited from earlier work
[13] = biological target: T1, A2 receptors of human platelets; settings: cited from earlier work
[14] = tested on: A2 receptors of PC12 cells; settings: cited from earlier work

Structure (SMILES): OC[C@H]1O[C@@H](n2cnc3c(Oc4ccccc4)ncnc32)[C@H](O)[C@@H]1O [6-phenoxypurine riboside]
activity at coronary A2 receptors [1]: inactive or nearly so

antagonist potency at platelet A2 receptor [2]: very weak antagonist
Structure (SMILES): Nc1ncnc2nc[nH]c12 [Example 1, Adenine, reference compound]
effect on basal adenylate cyclase activity ([2]; human platelets, data not shown): does not affect basal adenylate cyclase activity
antagonist potency at A2 receptor of PC12 cells [3]: very weak antagonist
antagonist potency at A1 receptors of fat cells [4]: does not affect R-PIA-induced inhibition of fat cell adenylate cyclase activity
specific, competitive antagonism of cyclic AMP accumulation ([5]; adenosine-induced, human fibroblast cell line): specific, competitive antagonist
Ki ([5]; competitive antagonism of adenosine-induced cyclic AMP accumulation, human fibroblast cell line): 200 µM

Structure (SMILES): Cn1cnc2c(N)ncnc21 [Example 2, 9-Methyladenine, reference compound]
antagonist potency at platelet A2 receptor [2]: more potent than the adenine itself
antagonist potency at A1 receptors of fat cells [4]: antagonizes the effect of R-PIA
potency increase by methylation of adenine at the 9-position ([5]; relative to adenine): about 4 fold

antagonist potency at platelet A2 receptor [2]: more potent than 9-methyladenine itself
inhibition of [3H]PIA binding (Ki), in words [6]: more potent
antagonism of adenosine agonists in atria [7]: competitive antagonists
potency at adenosine receptors (subtype not stated) [10]: more potent than 9-methyladenine
receptor selectivity A1 versus A2 ([10]; listed as N^6 -Cyclopentyl): selective for A1 receptors
receptor selectivity A1 versus A2 ([10]; listed as cyclopentyl-): selective for receptors
Structure (SMILES): Cn1cnc2c(NC3CCCC3)ncnc21 [Example 4, N^6 -Cyclopentyl-9-MA]
potency at platelet A2 receptor relative to PC12 A2 receptor ([2]; human platelets versus rat PC12 cells): more potent at the platelet A2 receptor than at the PC12 A2 receptor
antagonist potency at A1 receptors of fat cells [4]: more potent than the parent compound 9-methyladenine
antagonism of adenosine agonists in taenia caecum ([8]; guinea pig taenia caecum relaxation): did not competitively antagonize the effects of adenosine agonists
sensitization of the tissue ([8]; guinea pig taenia caecum, high concentrations): some sensitization of the tissue
activity at A1 receptors, in words [9]: most potent of N^6 -substituted 9-methyladenines at A1 receptors

antagonist potency at A1 receptors of fat cells [4]: less potent
activity at A1 receptors, in words [9]: reduces activity at A1 receptors
receptor selectivity A1 versus A2 [10]: selective for receptors
Structure (SMILES): Cn1cnc2c(NC3(C)CCCC3)ncnc21 [Example 5, N^6 -Methylcyclopentyl-9-MA]
antagonist potency at platelet A2 receptor [2]: less potent than the parent cyclopentyl analog
antagonist potency at A2 receptor of PC12 cells [3]: reduces potency in PC12 cells

Structure (SMILES): CCNC(=O)[C@H]1O[C@@H](n2cnc3c(N)ncnc32)[C@H](O)[C@@H]1O [NECA, 5'-N-ethylcarboxamido-adenosine]
potency at A2 receptors, in words [11]: more potent than N^6 -substituted analogs at A2 receptors

Structure (SMILES): OC[C@H]1O[C@@H](n2cnc3c(NCc4ccccc4)ncnc32)[C@H](O)[C@@H]1O [N^6 -benzyladenosine]
affinity/activity at A1 receptors, in words [12]: low activity
agonist potency at platelet A2 receptors, in words [13]: more potent of the N^6 -substituted adenosines

Structure (SMILES): OC[C@H]1O[C@@H](n2cnc3c(NC4CCC4)ncnc32)[C@H](O)[C@@H]1O [N^6 -cyclobutyl-]
agonist potency at platelet A2 receptors, in words [13]: more potent of the N^6 -substituted adenosines
agonist potency at PC12 A2 receptors, in words [14]: more potent of the series

Structure (SMILES): OC[C@H]1O[C@@H](n2cnc3c(NCCc4ccsc4)ncnc32)[C@H](O)[C@@H]1O [N^6-2-(3-thienylethyl)-]
agonist potency at platelet A2 receptors, in words [13]: more potent of the N^6 -substituted adenosines

Structure (SMILES): C[C@H](Cc1ccccc1)Nc1ncnc2c1ncn2[C@@H]1O[C@H](CO)[C@@H](O)[C@H]1O [R-PIA, N^6 -R-1-phenyl-2-propyladenosine]
affinity/activity at A1 receptors, in words [12]: very high affinity for A1 adenosine receptors
agonist potency at platelet A2 receptors, in words [13]: more potent of the N^6 -substituted adenosines
agonist potency at PC12 A2 receptors, in words [14]: more potent of the series
